According to US12552783B2, “Modulators of proteolysis and associated methods of use” (Arvinas Operations, Inc., priority 2018, dated 2026):

Target: KRas (Homo sapiens, UniProt P01116, G12C)
Assay: KRas degradation in NCI-H2030 cells by Western blot, normalized to GAPDH (data of Table 14)
Assay type: cell-based
Set-up: host or cells: NCI-H2030
Details: for Dmax: NCI-H2030
In short: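 After overnight adherence and 24 h without FBS, compounds added at 0.3, 1 or 3 μM (0.1% DMSO) for 24 h (VHL-based) or 72 h (others). Western blot of RIPA lysates, KRas signal over GAPDH relative to DMSO; DC50 and DMax derived, or <25% scored visually.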

SMILES | Percent Degradation at Indicated Concentration (μM) (H2030, 3 μM) | Percent Degradation at Indicated Concentration (μM): 0.3 (H2030 cells, 0.3 μM) | Percent Degradation at Indicated Concentration (μM): 1 (H2030 cells, 1 μM) | Percent Degradation at Indicated Concentration (μM): 3 (H2030 cells, 3 μM) | Dmax (H2030 cells) [%] | further results
C=CC(=O)N1CCN(c2nc(NCCC(=O)N(C)CCOCCOCCOCCOCCOCCOCCOCCOCCOCCOCC(=O)N[C@H](C(=O)N3C[C@H](O)C[C@H]3C(=O)N[C@@H](C)c3ccc(-c4scnc4C)cc3)C(C)(C)C)nc3c(F)c(-c4cc(O)cc5ccccc45)c(Cl)cc23)CC1 [compound 198, (2S,4R)-1-((2S)-39-((4-(4-acryloylpiperazin-1-yl)-6-chloro-8-fluoro-7-(3-hydroxynaphthalen-1-yl)quinazolin-2-yl)amino)-2-(tert-butyl)-36-methyl-4,37-dioxo-6,9,12,15,18,21,24,27,30,33-decaoxa-3,36-diazanonatriacontanoyl)-4-hydroxy-N-((S)-1-(4-(4-methylthiazol-5-yl)phenyl)ethyl)pyrrolidine-2-carboxamide] | C (Percent Degradation: C ≤ 35) |  |  |  |  | Percent Degradation at Indicated Concentration (μM) (H2030, 0.3 μM): C (Percent Degradation: C ≤ 35); Percent Degradation at Indicated Concentration (μM) (H2030, 1 μM): C (Percent Degradation: C ≤ 35); Dmax: ≤ 35%
C=CC(=O)N1CCN(c2nc(NCCC(=O)N(C)CCOCCOCCOCCOCCOCC(=O)N[C@H](C(=O)N3C[C@H](O)C[C@H]3C(=O)N[C@@H](C)c3ccc(-c4scnc4C)cc3)C(C)(C)C)nc3c(F)c(-c4c(O)cccc4F)c(Cl)cc23)CC1 (atropisomer, axis not shown) [compound 213, (2S,4R)-1-((S)-24-(((S)-4-(4-acryloylpiperazin-1-yl)-6-chloro-8-fluoro-7-(2-fluoro-6-hydroxyphenyl)quinazolin-2-yl)amino)-2-(tert-butyl)-21-methyl-4,22-dioxo-6,9,12,15,18-pentaoxa-3,21-diazatetracosanoyl)-4-hydroxy-N-((S)-1-(4-(4-methylthiazol-5-yl)phenyl)ethyl)pyrrolidine-2-carboxamide] | C (Percent Degradation: C ≤ 35) |  |  |  |  | 
C=CC(=O)N1CCN(c2nc(NCCC(=O)N(C)CCOCCOCCOCCNC(=O)c3ccc(NC(=O)[C@@H]4N[C@@H](CC(C)(C)C)[C@](C#N)(c5ccc(Cl)cc5F)[C@H]4c4cccc(Cl)c4F)c(OC)c3)nc3c(F)c(-c4cc(O)cc5ccccc45)c(Cl)cc23)CC1 [compound 303, (2R,3S,4R,5S)-N-(4-((15-((4-(4-acryloylpiperazin-1-yl)-6-chloro-8-fluoro-7-(3-hydroxynaphthalen-1-yl)quinazolin-2-yl)amino)-12-methyl-13-oxo-3,6,9-trioxa-12-azapentadecyl)carbamoyl)-2-methoxyphenyl)-3-(3-chloro-2-fluorophenyl)-4-(4-chloro-2-fluorophenyl)-4-cyano-5-neopentylpyrrolidine-2-carboxamide] | C (Percent Degradation: C ≤ 35) |  |  |  |  | Percent Degradation at Indicated Concentration (μM) (H2030, 0.3 μM): C (Percent Degradation: C ≤ 35); Percent Degradation at Indicated Concentration (μM) (H2030, 1 μM): C (Percent Degradation: C ≤ 35); Dmax: ≤ 35%
C=CC(=O)N1CCN(c2nc(O[C@H](C)CN3CCC(OCCOc4ccc5c(c4)C(=O)N(C4CCC(=O)NC4=O)C5=O)CC3)nc3c2CCN(c2cc(O)cc4ccccc24)C3)CC1 (stereo partly drawn) [compound 416, 5-(2-((1-((R)-2-((4-(4-acryloylpiperazin-1-yl)-7-(3-hydroxynaphthalen-1-yl)-5,6,7,8-tetrahydropyrido[3,4-d]pyrimidin-2-yl)oxy)propyl)piperidin-4-yl)oxy)ethoxy)-2-(2,6-dioxopiperidin-3-yl)isoindoline-1,3-dione] |  |  |  |  |  | Percent Degradation at Indicated Concentration (μM) (H2030 cells, 0.3 μM): C (Percent Degradation: C ≤ 35); Percent Degradation at Indicated Concentration (μM) (H2030 cells, 1 μM): C (Percent Degradation: C ≤ 35); Percent Degradation at Indicated Concentration (μM) (H2030 cells, 3 μM): C (Percent Degradation: C ≤ 35)
C=CC(=O)N1CCN(c2nc(NCCC(=O)N(C)CCOCCOCCOCCOc3cc(-c4scnc4C)ccc3CNC(=O)[C@@H]3C[C@@H](O)CN3C(=O)[C@H](c3cc(C)no3)C(C)C)nc3c(F)c(-c4c(O)cccc4F)c(Cl)cc23)CC1 (atropisomer, axis not shown) [compound 131, (2S,4R)-N-(2-((15-(((S)-4-(4-acryloylpiperazin-1-yl)-6-chloro-8-fluoro-7-(2-fluoro-6-hydroxyphenyl)quinazolin-2-yl)amino)-12-methyl-13-oxo-3,6,9-trioxa-12-azapentadecyl)oxy)-4-(4-methylthiazol-5-yl)benzyl)-4-hydroxy-1-((S)-3-methyl-2-(3-methylisoxazol-5-yl)butanoyl)pyrrolidine-2-carboxamide] | C (Percent Degradation: C ≤ 35) |  |  |  |  | Percent Degradation at Indicated Concentration (μM) (H2030, 0.3 μM): C (Percent Degradation: C ≤ 35); Percent Degradation at Indicated Concentration (μM) (H2030, 1 μM): C (Percent Degradation: C ≤ 35); Dmax: ≤ 35%
CCC(=O)N1CCN(c2nc(NCCC(=O)N(C)CCOCCOCCOCCOc3cc(-c4scnc4C)ccc3CNC(=O)[C@@H]3C[C@@H](O)CN3C(=O)[C@@H](c3cc(C)no3)C(C)C)nc3c(F)c(-c4cc(O)cc5ccccc45)c(Cl)cc23)CC1 [compound 334, (2S,4R)-N-(2-((15-((6-chloro-8-fluoro-7-(3-hydroxynaphthalen-1-yl)-4-(4-propionylpiperazin-1-yl)quinazolin-2-yl)amino)-12-methyl-13-oxo-3,6,9-trioxa-12-azapentadecyl)oxy)-4-(4-methylthiazol-5-yl)benzyl)-4-hydroxy-1-((R)-3-methyl-2-(3-methylisoxazol-5-yl)butanoyl)pyrrolidine-2-carboxamide] |  | C (C ≤ 35) | C (C ≤ 35) | C (C ≤ 35) | ≤ 35 | 
Cc1ncsc1-c1ccc([C@H](C)NC(=O)[C@@H]2C[C@@H](O)CN2C(=O)[C@@H](NC(=O)COCCOCCN(C)C(=O)CCNc2nc(N3CCN(C(=O)C(O)O)CC3)c3cc(Cl)c(-c4c(O)cccc4F)c(F)c3n2)C(C)(C)C)cc1 (atropisomer, axis not shown) [compound 236, (2S,4R)-1-((S)-2-(tert-butyl)-15-(((S)-6-chloro-4-(4-(2,2-dihydroxyacetyl)piperazin-1-yl)-8-fluoro-7-(2-fluoro-6-hydroxyphenyl)quinazolin-2-yl)amino)-12-methyl-4,13-dioxo-6,9-dioxa-3,12-diazapentadecanoyl)-4-hydroxy-N-((S)-1-(4-(4-methylthiazol-5-yl)phenyl)ethyl)pyrrolidine-2-carboxamide] | C (Percent Degradation: C ≤ 35) |  |  |  |  | 
CCC(=O)N1CCN(c2nc(NCCC(=O)N(C)CCOCCOc3ccc4c(c3)C(=O)N(C3CCC(=O)NC3=O)C4=O)nc3c(F)c(-c4cc(O)cc5ccccc45)c(Cl)cc23)CC1 (stereo not shown) [compound 47, 3-((6-chloro-8-fluoro-7-(3-hydroxynaphthalen-1-yl)-4-(4-propionylpiperazin-1-yl)quinazolin-2-yl)amino)-N-(2-(2-((2-(2,6-dioxopiperidin-3-yl)-1,3-dioxoisoindolin-5-yl)oxy)ethoxy)ethyl)-N-methylpropanamide] |  | C (C ≤ 35) | C (C ≤ 35) | C (C ≤ 35) | ≤ 35 | 
C=CC(=O)N1CCN(c2nc(NCCC(=O)N(C)CCOCCOCCOCCOc3ccc4c(c3)C(=O)N(C3CCC(=O)NC3=O)C4=O)nc3c(F)c(-c4cc(O)cc5ccccc45)c(Cl)cc23)CC1 (stereo not shown) [compound 62, 3-((4-(4-acryloylpiperazin-1-yl)-6-chloro-8-fluoro-7-(3-hydroxynaphthalen-1-yl)quinazolin-2-yl)amino)-N-(2-(2-(2-(2-((2-(2,6-dioxopiperidin-3-yl)-1,3-dioxoisoindolin-5-yl)oxy)ethoxy)ethoxy)ethoxy)ethyl)-N-methylpropanamide] |  | C (C ≤ 35) | C (C ≤ 35) | C (C ≤ 35) | ≤ 35 | 
C=CC(=O)N1CCN(c2nc(NCCC(=O)N(C)CCOCCOCCOCCOCC(=O)N[C@H](C(=O)N3C[C@H](O)C[C@H]3C(=O)N[C@@H](C)c3ccc(-c4scnc4C)cc3)C(C)(C)C)nc3c(F)c(-c4cc(O)cc5ccccc45)c(Cl)cc23)CC1 (racemic) [compound 195, (2RS,4SR)-1-((RS)-21-((4-(4-acryloylpiperazin-1-yl)-6-chloro-8-fluoro-7-((RS)-3-hydroxynaphthalen-1-yl)quinazolin-2-yl)amino)-2-(tert-butyl)-18-methyl-4,19-dioxo-6,9,12,15-tetraoxa-3,18-diazahenicosanoyl)-4-hydroxy-N-((RS)-1-(4-(4-methylthiazol-5-yl)phenyl)ethyl)pyrrolidine-2-carboxamide] | C (Percent Degradation: C ≤ 35) |  |  |  |  | 
CCC(=O)N1CCN(c2nc(NCCC(=O)N(C)CCOCCOCC(=O)N[C@H](C(=O)N3C[C@H](O)C[C@H]3C(=O)N[C@@H](C)c3ccc(-c4scnc4C)cc3)C(C)(C)C)nc3c(F)c(-c4cc(O)cc5ccccc45)c(Cl)cc23)CC1 [compound 187, (2S,4R)-1-((2S)-2-(tert-butyl)-15-((6-chloro-8-fluoro-7-(3-hydroxynaphthalen-1-yl)-4-(4-propionylpiperazin-1-yl)quinazolin-2-yl)amino)-12-methyl-4,13-dioxo-6,9-dioxa-3,12-diazapentadecanoyl)-4-hydroxy-N-((S)-1-(4-(4-methylthiazol-5-yl)phenyl)ethyl)pyrrolidine-2-carboxamide] |  | C (C ≤ 35) | C (C ≤ 35) | C (C ≤ 35) | ≤ 35 | 
